Patent publication US5786386A, “Antibacterial and fungicidal agent” (Takasago International Corporation, priority 1995, dated 1998)

What was measured:
Type in all cases: in vivo
[1] = test system: Hartley guinea pigs; test: Test Example 3 (safety test), sensitization, maximization method; details: 1 wt % solution in acetone; induction at 10 wt %; female guinea pigs
Experimental: Test Example 3 (safety test) Method Five (5) or ten (10) Hartley guinea pigs (female, body weight: 350-400 g) are used. A 1 wt % solution of each test compound in acetone was prepared, and the solution was tested with respect to its sensitizing potential, primary stimulation to the skin, and photo-toxicity. As test compounds, three compounds, i.e., compound Nos. 1, 10, and 14 in Table 1, were used. The sensitization test was performed in accordance with the maximization method proposed by Magnusson [Magnusson, B and Kligman, A.M.,; "The identification of contact allergens by animal assay. The guinea pig maximization test" (J. Inv. Derm., 52, p268-276 (1969))]. The induction of sensitization was performed at a concentration of 10 wt %.

[2] = test system: Hartley guinea pigs; test: Test Example 3 (safety test), primary stimulation to the skin; details: 1 wt % solution in acetone; female guinea pigs
Experimental: Test Example 3 (safety test) Method Five (5) or ten (10) Hartley guinea pigs (female, body weight: 350-400 g) are used. A 1 wt % solution of each test compound in acetone was prepared, and the solution was tested with respect to its sensitizing potential, primary stimulation to the skin, and photo-toxicity. As test compounds, three compounds, i.e., compound Nos. 1, 10, and 14 in Table 1, were used.

[3] = test system: Hartley guinea pigs; test: Test Example 3 (safety test), photo-toxicity; details: 1 wt % solution in acetone; light source FL-40S.BLB (300-400 nm); female guinea pigs
Experimental: Test Example 3 (safety test)
Five (5) or ten (10) Hartley guinea pigs (female, body weight: 350-400 g) are used. A 1 wt % solution of each test compound in acetone was prepared, and the solution was tested with respect to its sensitizing potential, primary stimulation to the skin, and photo-toxicity.
As test compounds, three compounds, i.e., compound Nos. 1, 10, and 14 in Table 1, were used.
The positive control compound used for the photo-toxicity was an ethanol solution containing 100 ppm of 8-methoxypsoralen (product of Aldrich). The light source used was FL-40S.BLB (300-400 nm; manufactured by Toshiba).

| SMILES | Sensitization [1] | Primary stimulation [2] | Photo-toxicity [3] |
| --- | --- | --- | --- |
| CCCCCCCCCCCCNCc1ccc2c(c1)OCO2 [Compound No. 1] | 0/10 | 0/5 | 0/5 |
| CCCCCCCCCCCCN(C)Cc1cc(OC)c(OC)cc1OC [Compound No. 14] | 0/10 | 0/5 | 0/5 |
| CCCCCCCCCCCCNCc1ccc(OC)c(O)c1 [Compound No. 10, N-lauryl-3-hydroxy-4-methoxybenzylamine] | 0/10 | 0/5 | 0/5 |
